Reference: patent US8101550B2, “Anthranilic acid diamide derivative with hetero-aromatic and hetero-cyclic substituents” (Bayer Cropscience AG, priority 2006, dated 2012)
Read-outs that look alike come from different tables or passages of the source.

Test: log P determination by HPLC on reverse-phase column (EEC Directive 79/831 Annex V.A8)
Type: physicochemical
Procedure: The log P values stated in the foregoing tables and preparation examples are determined in accordance with EEC Directive 79/831 Annex V.A8 by means of HPLC (High Performance Liquid Chromatography) on a reverse-phase column (C 18). Temperature: 43° C.
The determination by LC-MS in the acidic range takes place at a pH of 2.7 using 0.1% aqueous formic acid and acetonitrile (containing 0.1% formic acid) as eluents; linear gradient from 10% acetonitrile to 95% acetonitrile.
Calibration is with unbranched alkan-2-ones (having 3 to 16 carbon atoms) of known log P value (log P values determined from the retention times by linear interpolation between two successive alkanones).

[1] = HPLC, reverse-phase column (C 18), 43° C., acidic range pH 2.7

Row | SMILES | logP (HPLC on reverse-phase column) | logP | other results
1 | Cc1cc(Cl)cc(C(=O)NCC#N)c1NC(=O)c1cc(Cn2nc(C(F)(F)F)nc2C(F)(F)F)nn1-c1ncccc1Cl [I-1-55] | 3.40 | – | –
2 | CNC(=O)c1cc(Br)cc(C)c1NC(=O)c1cc(Cn2nc(C(F)(F)F)cc2C(F)(F)F)nn1-c1ncccc1Cl [I-1-58] | 3.76 | – | –
3 | Cc1cccc(C(=O)N[C@@H](C)CS(C)(=O)=O)c1NC(=O)c1cc(Cn2nc(C(F)(F)F)nc2C(F)(F)F)nn1-c1ncccc1Cl [I-1-87] | 2.92 | – | –
4 | CNC(=O)c1cc(Cl)cc(C)c1NC(=O)c1cc(Cn2nnn(-c3cc(Cl)cc(Cl)c3)c2=O)nn1-c1ncccc1Cl [I-1-96] | 3.90 | – | –
5 | CNC(=O)c1cc(Cl)cc(C)c1NC(=O)c1cc(Cn2cc(C(F)(F)F)cn2)nn1-c1ncccc1Cl [I-1-42] | 2.76 | – | –
6 | Cc1cc(C#N)cc(C(N)=O)c1NC(=O)c1cc(Cn2nc(C(F)(F)F)cc2C(F)(F)F)nn1-c1ncccc1Cl [I-1-189] | – | 3.15 | –
7 | CNC(=O)c1cc(Cl)cc(Cl)c1NC(=O)c1cc(Cn2nc(C(F)F)c([N+](=O)[O-])c2C(F)F)nn1-c1ncccc1Cl [I-1-266] | – | 2.99 | –
8 | CSC[C@H](C)NC(=O)c1cc(Cl)cc(C)c1NC(=O)c1cc(Cn2cnc(C(C)(C)C)n2)nn1-c1ncccc1Cl [I-1-162] | – | 3.10 | –
9 | O=C(NC1CC1)c1cc(Cl)cc(Cl)c1NC(=O)c1cc(Cn2nc(C(F)(F)F)nc2C(F)(F)F)nn1-c1ncccc1Cl [I-1-295] | – | 2.95 | –
10 | Cc1cc(I)cc(C(=O)NC2CC2)c1NC(=O)c1cc(Cn2cc(Cl)c(C(F)(F)C(F)(F)F)n2)nn1-c1ncccc1Cl [I-1-276] | – | 4.15 | –
11 | CNC(=O)c1cc(Cl)cc(C)c1NC(=O)c1cc(Cn2nnn(-c3ccc(C(F)(F)F)cc3Cl)c2=O)nn1-c1ncccc1Cl [I-1-109] | 3.51 | – | –
12 | CNC(=O)c1cc(I)cc(C)c1NC(=O)c1cc(Cn2nc(C(F)F)c([N+](=O)[O-])c2C(F)F)nn1-c1ncccc1Cl [I-1-278] | – | 3.25 | –
13 | CNC(=O)c1cc(Cl)cc(C)c1NC(=O)c1cc(Cn2nc(C(F)(F)F)nc2C(F)(F)F)nn1-c1c(Cl)cccc1Cl [I-1-41] | 4.13 | – | –
14 | CC(C)NC(=O)c1cc(Cl)cc(Cl)c1NC(=O)c1cc(Cn2nc(C(F)(F)F)cc2C(F)(F)F)nn1-c1ncc(C(F)(F)F)cc1Cl [I-2-8] | – | – | logP [1]: 4.68
15 | Cc1cc(I)cc(C(=O)NC2CCCCC2)c1NC(=O)c1cc(Cn2nc(C(F)(F)F)nc2C(F)(F)F)nn1-c1ncccc1Cl [I-1-281] | – | 4.54 | –
16 | Cc1cc(Cl)cc(C(=O)NCC#N)c1NC(=O)c1cc(Cn2nc(C(F)(F)F)nc2C(F)(F)F)nn1-c1ncccc1Cl [I-1-79] | 3.62 | – | –
17 | Cc1cccc(C(=O)NC(C)C[S+](C)[O-])c1NC(=O)c1cc(Cn2nc(C(F)(F)F)nc2C(F)(F)F)nn1-c1ncccc1Cl (stereo not drawn) [I-1-92] | 2.65 | – | –
18 | Cc1cc(Cl)cc(C(=O)NC(C)C)c1NC(=O)c1cc(Cn2nc(C(F)(F)F)cc2C(F)(F)F)nn1-c1ncc(C(F)(F)F)cc1Cl [I-2-11] | – | – | logP [1]: 4.78
19 | CSC[C@H](C)NC(=O)c1cc(Cl)cc(C)c1NC(=O)c1cc(Cn2nc(C(F)(F)F)nc2C(F)(F)F)nn1-c1ncccc1Cl [I-1-75] | 4.04 | – | –
20 | COC(=O)c1cc(Cn2nc(C(F)(F)F)cc2C(F)(F)F)nn1-c1ncccc1Cl [Example 4, Methyl 5-(3,5-bistrifluoromethylpyrazol-1-ylmethyl)-2-(3-chloropyridin-2-yl)-2H-pyrazole-3-carboxylate] | – | – | chromatographic logP (reverse-phase C18 HPLC column, HPLC, reverse-phase column (C 18), 43° C., acidic range pH 2.7, read-out: logP): 3.71

Row | SMILES | logP (HPLC on reverse-phase column) | logP | other results
21 | Cc1cc(I)cc(C(=O)NC(C)C2CC2)c1NC(=O)c1cc(Cn2nc(C(F)(F)F)nc2C(F)(F)F)nn1-c1ncccc1Cl (stereo not drawn) [I-1-284] | – | 4.16 | –
22 | CNC(=O)c1cc(Cl)cc(C)c1NC(=O)c1cc(Cn2cnc(C(F)(F)F)c2)nn1-c1ncccc1Cl [I-1-132] | 2.39 | – | –
23 | CNC(=O)c1cc(Cl)cc(C)c1NC(=O)c1cc(Cn2nnc(-c3ccccc3)n2)nn1-c1ncccc1Cl [I-1-165] | – | 3.09 | –
24 | Cc1cc(Br)cc(C(N)=O)c1NC(=O)c1cc(Cn2cc(C(F)(F)C(F)(F)F)c(C(F)(F)C(F)(F)F)n2)nn1-c1ncccc1Cl [I-1-53] | 4.17 | – | –
25 | Cc1cc(Br)cc(C(=O)NCC#N)c1NC(=O)c1cc(Cn2cc(Br)c(C(F)(F)F)n2)nn1-c1ncccc1Cl [I-1-97] | 3.45 | – | –
26 | CCNC(=O)c1cc(I)cc(C)c1NC(=O)c1cc(Cn2nc(C(F)(F)F)nc2C(F)(F)F)nn1-c1ncccc1Cl [I-1-244] | – | 3.83 | –
27 | Cc1cc(Cl)cc(C(=O)NCC#N)c1NC(=O)c1cc(Cn2cc(C(F)(F)C(F)(F)F)c(C(F)(F)C(F)(F)F)n2)nn1-c1ncccc1Cl [I-1-47] | 4.31 | – | –
28 | CNC(=O)c1cc(Cl)cc(C)c1NC(=O)c1cc(Cn2cnc(C(C)(C)C)n2)nn1-c1ncccc1Cl [I-1-160] | – | 2.39 | –
29 | CNC(=O)c1cc(F)cc(C)c1NC(=O)c1cc(Cn2ccc(C(F)(F)F)n2)nn1-c1ncccc1Cl [I-1-222] | – | 2.58 | –
30 | Cc1cc(Br)cc(C(=O)NC(C)(C)CS(C)(=O)=O)c1NC(=O)c1cc(Cn2nc(C(F)(F)F)nc2C(F)(F)F)nn1-c1ncccc1Cl [I-1-142] | 3.67 | – | –
31 | CNC(=O)c1cc(C#N)cc(C)c1NC(=O)c1cc(Cn2nc(C(F)(F)F)cc2C(F)(F)F)nn1-c1ncccc1Cl [I-1-186] | – | 3.35 | –
32 | CNC(=O)c1cc(F)cc(C)c1NC(=O)c1cc(Cn2cc(C(F)(F)C(F)(F)F)c(C(F)(F)C(F)(F)F)n2)nn1-c1ncccc1Cl [I-1-220] | – | 4.06 | –
33 | O=C(NC1CC1)c1cc(Cl)cc(Cl)c1NC(=O)c1cc(Cn2cnc(C(F)(F)C(F)(F)F)n2)nn1-c1ncccc1Cl [I-1-344] | – | 2.37 | –
34 | CNC(=O)c1cc(F)cc(C)c1NC(=O)c1cc(Cn2cc(Cl)c(C(F)(F)C(F)(F)F)n2)nn1-c1ncccc1Cl [I-1-223] | – | 3.47 | –
35 | Cc1cc(I)cc(C(=O)NC(C)C)c1NC(=O)c1cc(Cn2ccc(C(F)(F)F)n2)nn1-c1ncccc1Cl [I-1-248] | – | 3.51 | –
36 | Cc1cc(Cl)cc(C(=O)NCC#N)c1NC(=O)c1cc(Cn2nc(C(F)(F)F)cc2C(F)(F)F)nn1-c1ncc(C(F)(F)F)cc1Cl [I-2-18] | – | – | logP [1]: 4.23
37 | Cc1cc(Br)cc(C(=O)NC2CC2)c1NC(=O)c1cc(Cn2cc(Cl)c(C(F)(F)C(F)(F)F)n2)nn1-c1ncccc1Cl [I-1-72] | 4.14 | – | –
38 | Cc1cc(C#N)cc(C(=O)NC(C)C)c1NC(=O)c1cc(Cn2cnc(C(F)(F)C(F)(F)F)n2)nn1-c1ncccc1Cl [I-1-354] | – | 2.23 | –
39 | CC(C)NC(=O)c1cc(Cl)cc(Cl)c1NC(=O)c1cc(Cc2cncnc2)nn1-c1ncccc1Cl [I-1-318] | – | 1.62 | –
40 | Cc1cc(F)cc(C(=O)NC(C)C)c1NC(=O)c1cc(Cn2nc(C(F)(F)F)cc2C(F)(F)F)nn1-c1ncc(C(F)(F)F)cc1Cl [I-2-20] | – | – | logP [1]: 4.47

Row | SMILES | logP (HPLC on reverse-phase column) | logP | other results
41 | Cc1cc(Cl)cc(C(=O)NC2CC2)c1NC(=O)c1cc(Cn2cc(C(F)(F)C(F)(F)F)c(C(F)(F)C(F)(F)F)n2)nn1-c1ncccc1Cl [I-1-46] | 4.58 | – | –
42 | Cc1cc(F)cc(C(=O)NC2CC2CO)c1NC(=O)c1cc(Cn2cc(Cl)c(C(F)(F)C(F)(F)F)n2)nn1-c1ncccc1Cl (stereo not drawn) [I-1-203] | – | 3.14 | –
43 | Cc1cc(F)cc(C(=O)NC(C)C)c1NC(=O)c1cc(Cn2cc(C(F)(F)C(F)(F)F)c(C(F)(F)C(F)(F)F)n2)nn1-c1ncccc1Cl [I-1-217] | – | 4.47 | –
44 | Cc1cc(C#N)cc(C(N)=O)c1NC(=O)c1cc(Cn2cc(C(F)(F)C(F)(F)F)c(C(F)(F)C(F)(F)F)n2)nn1-c1ncccc1Cl [I-1-192] | – | 3.91 | –
45 | Cc1cc(I)cc(C(N)=O)c1NC(=O)c1cc(Cn2ccc(C(F)(F)F)n2)nn1-c1ncccc1Cl [I-1-273] | – | 2.84 | –
46 | Cc1cc(Cl)cc(C(=O)NCc2ccco2)c1NC(=O)c1cc(Cn2cc(Cl)c(C(F)(F)C(F)(F)F)n2)nn1-c1ncccc1Cl [I-1-201] | – | 4.21 | –
47 | O=C(NCC1CC1)c1cc(Cl)cc(Cl)c1NC(=O)c1cc(Cn2nc(C(F)(F)F)nc2C(F)(F)F)nn1-c1ncccc1Cl [I-1-293] | – | 3.22 | –
48 | CNC(=O)c1cc(Cl)cc(C)c1NC(=O)c1cc(Cn2nnn(CC(F)(F)F)c2=O)nn1-c1ncccc1Cl [I-1-122] | 2.51 | – | –
49 | Cc1cc(I)cc(C(=O)NCC#N)c1NC(=O)c1cc(Cn2ccc(C(F)(F)F)n2)nn1-c1ncccc1Cl [I-1-251] | – | 3.04 | –
50 | NC(=O)c1cc(Cl)cc(Cl)c1NC(=O)c1cc(Cn2nc(C(F)(F)F)nc2C(F)(F)F)nn1-c1ncccc1Cl [I-1-298] | – | 2.61 | –
51 | CNC(=O)c1cc(I)cc(C)c1NC(=O)c1cc(Cn2nc(C(F)(F)F)nc2C(F)(F)F)nn1-c1ncccc1Cl [I-1-237] | – | 3.60 | –
52 | Cc1cc(Br)cc(C(=O)NCC#N)c1NC(=O)c1cc(Cn2ccc(C(F)(F)F)n2)nn1-c1ncccc1Cl [I-1-85] | 2.98 | – | –
53 | Cc1cc(I)cc(C(=O)NC(C2CC2)C2CC2)c1NC(=O)c1cc(Cn2nc(C(F)(F)F)nc2C(F)(F)F)nn1-c1ncccc1Cl [I-1-286] | – | 4.52 | –
54 | Cc1cc(C#N)cc(C(=O)NC2CC2)c1NC(=O)c1cc(Cn2nc(C(F)(F)F)cc2C(F)(F)F)nn1-c1ncccc1Cl [I-1-188] | – | 3.56 | –
55 | Cc1cc(Br)cc(C(=O)NC(C)C)c1NC(=O)c1cc(Cn2cc(Br)c(C(F)(F)F)n2)nn1-c1ncccc1Cl [I-1-69] | 3.92 | – | –
56 | CNC(=O)c1cc(Cl)cc(C)c1NC(=O)c1cc(Cn2nnc(-c3cc(Cl)nc(Cl)c3)n2)nn1-c1ncccc1Cl [I-1-155] | – | 3.69 | –
57 | CNC(=O)c1cc(Cl)cc(C)c1NC(=O)c1cc(Cn2cc(I)cn2)nn1-c1ncccc1Cl [I-1-45] | 2.67 | – | –
58 | NC(=O)c1cc(Cl)cc(Cl)c1NC(=O)c1cc(Cn2cc(Cl)c(C(F)(F)C(F)(F)F)n2)nn1-c1ncccc1Cl [I-1-307] | – | 2.95 | –
59 | Cc1cc(Cl)cc(C(=O)N[C@@H](C)C[S+](C)[O-])c1NC(=O)c1cc(Cn2cc(Br)c(C(F)(F)F)n2)nn1-c1ncccc1Cl (stereo partly drawn) [I-1-138] | 2.91 | – | –
60 | Cc1cc(Cl)cc(C(N)=O)c1NC(=O)c1cc(Cn2nnn(-c3cc(C(F)(F)F)cc(C(F)(F)F)c3)c2=O)nn1-c1ncccc1Cl [I-1-94] | 3.85 | – | –
